Columns and labels:
[1] = system: hyaluronic acid synthase gene HAS3; test: Expression of hyaluronic acid synthase gene HAS3, keratinocyte monolayer culture, real-time PCR; format: cell-based; conditions: human epidermal keratinocytes; final retinol concentration 10^−6 M or 10^−5 M; 6, 24 or 48 hours; Experimental Example 1
Method: (§1) Human epidermal keratinocytes (Cell Application Inc.) were seeded in a 24-well plate containing a human epidermal keratinocytes growth medium (Cell Application Inc.) so that the number of cells contained in a well was 1.5×10^5, and were cultured under the condition of 5% CO2-95% air and at 37° C. for about two days until the cells reached confluence.
(§2) Meanwhile, each tested substance was dissolved in a small amount of dimethylformamide and added to the medium, and the concentration of dimethylformamide in all experiments was adjusted to 0.1 wt %.
(§3) After culturing for a given time period, the keratinocytes were recovered and RNA was extracted therefrom. Then, the gene expression of hyaluronic acid synthases HAS2 and HAS3 were assessed by real-time PCR using the following primer pairs (Takara Bio Inc.): […]

[2] = system: hyaluronic acid synthase gene HAS2; test: Expression of hyaluronic acid synthase gene HAS2, keratinocyte monolayer culture, real-time PCR; format: cell-based; conditions: human epidermal keratinocytes; final retinol concentration 10^−6 M or 10^−5 M; 6, 24 or 48 hours; Experimental Example 1
Method: as §1, §2, §3

| Compound | level of HAS3 gene expression (ratio to PPIA, control after 6 hours = 1) [1] | level of HAS2 gene expression (ratio to PPIA, control after 6 hours = 1) [2] |
| --- | --- | --- |
| CC(=O)OC/C=C(C)/C=C/C=C(C)/C=C/C1=C(C)CCCC1(C)C [acetic acid retinol ester] | lower levels of gene expression as compared to the retinol-modified collagen | lower levels of gene expression as compared to the retinol-modified collagen |
| CCCCCCCCCCCCCCCC(=O)OC/C=C(C)/C=C/C=C(C)/C=C/C1=C(C)CCCC1(C)C [palmitic acid retinol ester] | lower levels of gene expression as compared to the retinol-modified collagen | lower levels of gene expression as compared to the retinol-modified collagen |

Reference: patent US9238688B2 (priority 2010, dated 2016)
